Measured values published in ChEMBL document CHEMBL2176897, “Synthesis and biological evaluation (in vitro and in vivo) of cyclic arginine-glycine-aspartate (RGD) peptidomimetic-paclitaxel conjugates targeting integrin αVβ3” (J Med Chem, 2012).
pIC50: −log10 of the molar value. Activity calls are given as the source filed them. The calls are words filed in the database; no cut-off is given here.

Legend:
[1] = biological target: Integrin alpha-V/beta-3 (Homo sapiens, UniProt P05106+P06756); assay: Competitive inhibition of biotinylated vitronectin to integrin alphaVbeta3 receptor after 3 hrs by microplate reader analysis; assay type: protein-complex assay
[2] = biological target: Integrin alpha-V/beta-5 (Homo sapiens, UniProt P06756+P18084); assay: Competitive inhibition of biotinylated vitronectin to integrin alphaVbeta5 receptor after 3 hrs by microplate reader analysis; assay type: protein-complex assay
[3] = Cytostatic activity against human dermal fibroblasts assessed as growth inhibition at 64 to 1000 nM after 72 hrs by coulter counter analysis; details: skin fibroblast, 1 µM
[4] = tested on: MIA PaCa-2; assay: Cytotoxicity against human MIAPaCa2 cells after 72 hrs by coulter counter analysis; assay type: functional, cell-based; details: MIA PaCa-2, 72 h
[5] = tested on: PANC-1; assay: Cytotoxicity against human PANC1 cells after 72 hrs by coulter counter analysis; assay type: functional, cell-based; details: PANC-1, 72 h
[6] = tested on: SK-OV-3; assay: Cytotoxicity against human SKOV3 cells after 72 hrs by coulter counter analysis; assay type: functional, cell-based; details: SK-OV-3, 72 h
[7] = tested on: U2OS; assay: Cytotoxicity against human U2OS cells after 72 hrs by coulter counter analysis; assay type: functional, cell-based
[8] = tested on: IGROV-1; assay: Cytotoxicity against cisplatin-resistant human IGROV1/Pt1 cells after 72 hrs by coulter counter analysis; assay type: functional, cell-based; details: IGROV-1, 72 h
[9] = tested on: IGROV-1; assay: Cytotoxicity against human IGROV1 cells after 72 hrs by coulter counter analysis; assay type: functional, cell-based; details: IGROV-1, 72 h
[10] = Half life of the compound in glucose phosphate buffer at pH 7; assay type: physicochemical
[11] = Selectivity ratio of IC50 for integrin alphaVbeta5 receptor to IC50 for integrin alphaVbeta3 receptor
[12] = tested on: IGROV-1; assay: Induction of abberant mitosis in cisplatin-resistant human IGROV1/Pt1 cells overexpressing integrin alphaVbeta3 receptors xenografted in athymic Swiss mouse at 30 mg/kg, iv measured 24 hrs post fourth treatment by hematoxylin and eosin staining; assay type: functional, organism-based; set-up: dose 30 mg/kg
[13] = tested on: IGROV-1; assay: Induction of abberant mitosis in cisplatin-resistant human IGROV1/Pt1 cells overexpressing integrin alphaVbeta3 receptors xenografted in athymic Swiss mouse at 30 mg/kg, iv measured 24 hrs post second treatment by hematoxylin and eosin staining; assay type: functional, organism-based; set-up: dose 30 mg/kg
[14] = tested on: Mus musculus; assay: Toxicity in athymic Swiss mouse xenografted with cisplatin-resistant human IGROV1/Pt1 cells overexpressing integrin alphaVbeta3 receptors assessed as body weight loss at 15 mg/kg, iv administered every 4 days for 4 times; assay type: organism-based, IGROV-1; set-up: dose 15 mg/kg, route intravenous; details: in vivo, 96 h
[15] = tested on: Mus musculus; assay: Toxicity in athymic Swiss mouse xenografted with cisplatin-resistant human IGROV1/Pt1 cells overexpressing integrin alphaVbeta3 receptors assessed as body weight loss at 30 mg/kg, iv administered every 4 days for 4 times; assay type: organism-based, IGROV-1; set-up: dose 30 mg/kg, route intravenous; details: in vivo, 96 h
[16] = Antitumor activity against cisplatin-resistant human IGROV1/Pt1 cells overexpressing integrin alphaVbeta3 receptors xenografted in athymic Swiss mouse assessed as tumor killing at 15 mg/kg, iv administered every 4 days for 4 times; assay type: functional, IGROV-1
[17] = Antitumor activity against cisplatin-resistant human IGROV1/Pt1 cells overexpressing integrin alphaVbeta3 receptors xenografted in athymic Swiss mouse assessed as tumor killing at 30 mg/kg, iv administered every 4 days for 4 times; assay type: functional, IGROV-1
[18] = tested on: IGROV-1; assay: Antitumor activity against cisplatin-resistant human IGROV1/Pt1 cells overexpressing integrin alphaVbeta3 receptors xenografted in athymic Swiss mouse assessed as absence of disease at 30 mg/kg, iv administered every 4 days for 4 times measured up to 10 days; assay type: functional, organism-based; set-up: dose 30 mg/kg
[19] = tested on: IGROV-1; assay: Antitumor activity against cisplatin-resistant human IGROV1/Pt1 cells overexpressing integrin alphaVbeta3 receptors xenografted in athymic Swiss mouse assessed as disappearance of tumor lasting at 15 mg/kg, iv administered every 4 days for 4 times measured up to 10 days; assay type: functional, organism-based; set-up: dose 15 mg/kg
[20] = Antitumor activity against cisplatin-resistant human IGROV1/Pt1 cells overexpressing integrin alphaVbeta3 receptors xenografted in athymic Swiss mouse assessed as tumor volume inhibition at 15 mg/kg, iv administered every 4 days for 4 times measured after 10 days relative to control; assay type: functional; details: IGROV-1
[21] = Antitumor activity against cisplatin-resistant human IGROV1/Pt1 cells overexpressing integrin alphaVbeta3 receptors xenografted in athymic Swiss mouse assessed as tumor volume inhibition at 30 mg/kg, iv administered every 4 days for 4 times measured after 10 days relative to control; assay type: functional; details: IGROV-1
[22] = Half life in human plasma at 10 uM by HPLC analysis; assay type: ADME, cell-free
[23] = Half life in mouse plasma at 10 uM by HPLC analysis; assay type: ADME, cell-free
[24] = Solubility of the compound in 0.9% NaCl in H2O/Cremophor EL/ethanol 90:5:5 v/v at 1.28 mM measured for 1 week by HPLC analysis; assay type: physicochemical; details: 168 h, 1280 µM
[25] = Solubility of the compound in 0.9% NaCl in H2O/Cremophor EL/ethanol 90:5:5 v/v at 1.92 mM after 2 days by HPLC analysis; assay type: physicochemical; details: 48 h, 1920 µM
[26] = Stability of the compound in 0.9% NaCl in H2O/Cremophor EL/ethanol 90:5:5 v/v at 1.28 mM measured for 1 week by HPLC analysis; assay type: physicochemical; details: 168 h, 1280 µM
[27] = Stability of the compound in 0.9% NaCl in H2O/Cremophor EL/ethanol 90:5:5 v/v at 1.92 mM after 2 days by HPLC analysis; assay type: physicochemical; details: 48 h, 1920 µM

| SMILES | pIC50 [1] | pIC50 [2] | growth inhibition (GI) [3] | pIC50 [4] | pIC50 [5] | pIC50 [6] | pIC50 [7] | pIC50 [8] | pIC50 [9] | Ratio IC50 [11] | other results |
| --- | --- | --- | --- | --- | --- | --- | --- | --- | --- | --- | --- |
| NC(N)=NCCC[C@@H]1NC(=O)C[C@@H]2NC(=O)[C@H](CNC(=O)[C@H](CC(=O)O)NC(=O)CNC1=O)N(Cc1ccccc1)C2=O | 8.41 |  |  |  |  |  |  |  |  |  |  |
| NC(N)=NCCC[C@@H]1NC(=O)C[C@H]2C(=O)N[C@H](CNC(=O)[C@H](CC(=O)O)NC(=O)CNC1=O)C(=O)N2Cc1ccc(CNC(=O)CCC(=O)O)cc1 | 8.39 | 7.12 |  |  |  |  |  |  |  |  |  |
| N=C(N)NCCC[C@@H]1NC(=O)C[C@H]2C(=O)N(Cc3ccccc3)[C@H](CNC(=O)[C@H](CC(=O)O)NC(=O)CNC1=O)C(=O)N2Cc1ccccc1 | 9.70 |  |  |  |  |  |  |  |  |  |  |
| CC(=O)O[C@H]1C(=O)[C@@]2(C)[C@H]([C@H](OC(=O)c3ccccc3)[C@]3(O)C[C@H](OC(=O)[C@H](OC(=O)CCC(=O)NCc4ccc(CN5C(=O)[C@@H]6CNC(=O)[C@H](CC(=O)O)NC(=O)CNC(=O)[C@H](CCCNC(=N)N)NC(=O)C[C@@H]5C(=O)N6)cc4)[C@@H](NC(=O)c4ccccc4)c4ccccc4)C(C)=C1C3(C)C)[C@]1(OC(C)=O)CO[C@@H]1C[C@@H]2O | 8.96 | 7.66 | Non-toxic | 8.60 | 8.46 | 8.62 | 8.24 | 8.62 | 7.32 |  |  |
| CC(=O)O[C@H]1C(=O)[C@@]2(C)[C@H]([C@H](OC(=O)c3ccccc3)[C@]3(O)C[C@H](OC(=O)[C@H](OC(=O)CCC(=O)N[C@@H](CCC(=O)NCCCC[C@@H]4NC(=O)[C@@H](Cc5ccccc5)NC(=O)[C@H](CC(=O)O)NC(=O)CNC(=O)[C@H](CCCNC(=N)N)NC4=O)C(=O)NCCCC[C@@H]4NC(=O)[C@@H](Cc5ccccc5)NC(=O)[C@H](CC(=O)O)NC(=O)CNC(=O)[C@H](CCCNC(=N)N)NC4=O)[C@@H](NC(=O)c4ccccc4)c4ccccc4)C(C)=C1C3(C)C)[C@]1(OC(C)=O)CO[C@@H]1C[C@@H]2O |  |  |  |  |  |  |  |  |  |  | half-life [10]: 2 h |
| N=C(N)NCCC[C@@H]1NC(=O)C[C@H]2C(=O)N[C@H](CNC(=O)[C@H](CC(=O)O)NC(=O)CNC1=O)C(=O)N2Cc1ccccc1 | 8.12 | 6.67 |  |  |  |  |  |  |  | 20 |  |
| N=C(N)NCCC[C@@H]1NC(=O)C[C@H]2C(=O)N[C@H](CNC(=O)[C@H](CC(=O)O)NC(=O)CNC1=O)C(=O)N2Cc1ccc(CNC(=O)CCC(=O)O)cc1 |  |  |  |  |  |  |  |  |  | 20 |  |
| N=C(N)NCCC[C@@H]1NC(=O)C[C@@H]2C(=O)N[C@@H](CNC(=O)[C@H](CC(=O)O)NC(=O)CNC1=O)C(=O)N2Cc1ccccc1 | 8.68 | 7.10 |  |  |  |  |  |  |  | 20 |  |
| CC(=O)O[C@H]1C(=O)[C@@]2(C)[C@H]([C@H](OC(=O)c3ccccc3)[C@]3(O)C[C@H](OC(=O)[C@H](OC(=O)CCC(=O)NCc4ccc(CN5C(=O)[C@H]6CC(=O)N[C@@H](CCCNC(=N)N)C(=O)NCC(=O)N[C@@H](CC(=O)O)C(=O)NC[C@H]5C(=O)N6)cc4)[C@@H](NC(=O)c4ccccc4)c4ccccc4)C(C)=C1C3(C)C)[C@]1(OC(C)=O)CO[C@@H]1C[C@@H]2O | 8.28 | 6.66 | Non-toxic | 8.64 | 8.62 | 8.92 | 7.89 | 8.31 | 7.21 | 20 | Activity [12]: Active; Activity [13]: Active; Activity [14]: 0%; Activity [15]: 3%; LCK [16]: 0.3; LCK [17]: 1.4; Activity [18]: Active; Activity [19]: Active; inhibition in vivo at 15 mg/kg [20]: 64%; inhibition in vivo at 30 mg/kg [21]: 85%; half-life at 10 µM [22]: 2.38 h; half-life at 10 µM [23]: 2.75 h; solubility [24]: soluble; solubility [25]: Insoluble; Stability [26]: Stable; Stability [27]: Unstable |
| N=C(N)NCCC[C@@H]1NC(=O)C[C@H]2NC(=O)[C@H](CNC(=O)[C@H](CC(=O)O)NC(=O)CNC1=O)N(Cc1ccccc1)C2=O |  | 6.83 |  |  |  |  |  |  |  | 20 |  |
| N=C(N)NCCC[C@@H]1NC(=O)[C@@H]2CC[C@H]3CCC[C@@H](NC(=O)[C@H](CC(=O)O)NC(=O)CNC1=O)C(=O)N32 | 9.00 | 8.85 |  |  |  |  |  |  |  | 20 |  |
| N=C(N)NCCC[C@@H]1NC(=O)C[C@H]2NC(=O)[C@H](CNC(=O)[C@H](CC(=O)O)NC(=O)CNC1=O)N(Cc1ccc(CN)cc1)C2=O.O=C(O)C(F)(F)F | 7.58 | < 5.30 | Non-toxic | < 4.94 | < 4.94 | < 4.94 | < 5.20 | < 4.74 | < 5.92 |  |  |
| N=C(N)NCCC[C@@H]1NC(=O)C[C@@H]2NC(=O)[C@@H](CNC(=O)[C@H](CC(=O)O)NC(=O)CNC1=O)N(Cc1ccccc1)C2=O | 8.49 | 6.94 |  |  |  |  |  |  |  | 20 |  |
| CC(=O)O[C@H]1C(=O)[C@@]2(C)[C@H]([C@H](OC(=O)c3ccccc3)[C@]3(O)C[C@H](OC(=O)[C@H](OC(=O)CCC(=O)NCc4ccc(CN5C(=O)[C@H]6CNC(=O)[C@H](CC(=O)O)NC(=O)CNC(=O)[C@H](CCCN=C(N)N)NC(=O)C[C@H]5C(=O)N6)cc4)[C@@H](NC(=O)c4ccccc4)c4ccccc4)C(C)=C1C3(C)C)[C@]1(OC(C)=O)CO[C@@H]1C[C@@H]2O | 9.05 | 7.12 | Non-toxic | 8.74 | 8.49 | 8.62 | 8.17 | 8.43 | 7.46 |  |  |
| N=C(N)NCCC[C@@H]1NC(=O)C[C@@H]2C(=O)N(Cc3ccccc3)[C@@H](CNC(=O)[C@H](CC(=O)O)NC(=O)CNC1=O)C(=O)N2Cc1ccccc1 (stereo in doubt; 7b) | 9.70 |  |  |  |  |  |  |  |  |  |  |
| CC(=O)O[C@H]1C(=O)[C@@]2(C)[C@H]([C@H](OC(=O)c3ccccc3)[C@]3(O)C[C@H](OC(=O)[C@H](O)[C@@H](NC(=O)c4ccccc4)c4ccccc4)C(C)=C1C3(C)C)[C@]1(OC(C)=O)CO[C@@H]1C[C@@H]2O [PACLITAXEL] |  |  | Non-toxic | 8.14 | 8.28 | 8.57 | 8.47 | 8.66 | 7.64 |  | Activity [12]: inactive; Activity [13]: Active; Activity [15]: 4%; LCK [17]: 0.7; Activity [18]: Active; inhibition in vivo at 30 mg/kg [21]: 76% |
| CC(=O)O[C@H]1C(=O)[C@@]2(C)[C@H]([C@H](OC(=O)c3ccccc3)[C@]3(O)C[C@H](OC(=O)[C@H](OC(=O)CCC(=O)NCc4ccc(CN5C(=O)[C@@H]6CC(=O)N[C@@H](CCCNC(=N)N)C(=O)NCC(=O)N[C@@H](CC(=O)O)C(=O)NC[C@@H]5C(=O)N6)cc4)[C@@H](NC(=O)c4ccccc4)c4ccccc4)C(C)=C1C3(C)C)[C@]1(OC(C)=O)CO[C@@H]1C[C@@H]2O | 8.07 | 6.29 | Non-toxic | 8.70 | 8.24 | 8.80 | 8.66 | 7.73 | 7.75 | 20 |  |
| N=C(N)NCCC[C@@H]1NC(=O)C[C@@H]2C(=O)N(Cc3ccccc3)[C@@H](CNC(=O)[C@H](CC(=O)O)NC(=O)CNC1=O)C(=O)N2Cc1ccccc1 (stereo in doubt; 7a) | 9.70 |  |  |  |  |  |  |  |  |  |  |
